Measured values: PubChem BioAssay AID1949 (Southern Research Institute, 2009)
≈ marks a conversion by molar mass, not a printed value. Results filed as inconclusive are left out. Calls of active or inactive are those of the source. No rule for the calls is given here.

What follows are compounds tested on M. tuberculosis H37Rv growth inhibition (assay: Mycobacterium tuberculosis H37Rv growth inhibition, cell based, confirmatory dose response (AID 1949);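 also: bacteria grown 7 days with compound before Alamar blue readout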).

For `CCc1cc(I)ccc1NC(=O)c1ccc([N+](=O)[O-])o1`, which IC50 is on record?
The IC50 was 1.61 µg/mL (≈ 4.17 µM).

For `Cc1cnc(Nc2cccc(Cl)c2)s1`, which IC50 is on record?
The IC50 was 14.3 µg/mL (≈ 63.7 µM).

Which IC50 does the source give for `Cc1cc(Br)c2[nH]c(O)c(N=NC(=O)COc3ccc4ccccc4c3)c2c1` here?
Its IC50 is 12 µg/mL (≈ 27.5 µM).

`CCCCOC(=O)COc1ccc2c(=O)c(Oc3ccc(OCC)cc3)c(C)oc2c1` was tested. Which IC50 did it give?
Its IC50 is 1.59 µg/mL (≈ 3.73 µM).

For `Cc1cccnc1NC(=S)Nc1ccc(Cl)c(Cl)c1`, which IC50 is on record?
Its IC50 is 8.34 µg/mL (≈ 26.7 µM).

With `Cc1nc2c(o1)C1(C(=O)N2C)C(C#N)=C(N)N(c2ccccc2)c2ccccc21` (stereo unspecified) as the compound, how does the IC50 read?
Its IC50 is 6.25 µg/mL (≈ 16.3 µM).

How did the IC50 turn out when `CN1CCN(c2nc(N3CCCc4ccccc43)nc(N3CCCc4ccccc43)n2)CC1` was run?
Its IC50 is 5.33 µg/mL (≈ 12.1 µM).

`CCC(=O)N1CCN(c2ccc(Cl)cc2NC(=O)CC23CC4CC(CC(C4)C2)C3)CC1` was tested. Which IC50 did it give?
The IC50 was 6.98 µg/mL (≈ 15.7 µM).

For `Cc1ccc(-c2cc(C(F)F)n3ncc(C(=O)N4CCc5ccccc5C4)c3n2)cc1`, which IC50 is on record?
Its IC50 is 38.3 µg/mL (≈ 91.6 µM).

How did the IC50 turn out when `c1ccc(OCCCCn2cnc3ccccc32)cc1` was run?
The IC50 was 16 µg/mL (≈ 60.2 µM).

How did the IC50 turn out when `CCn1nnc(NC(=O)c2sc3ccccc3c2Cl)n1` was run?
Its IC50 is 3.02 µg/mL (≈ 9.81 µM).

For `O=C(CCNc1cccc(F)c1)c1ccccc1`, which IC50 is on record?
The IC50 was 8.2 µg/mL (≈ 33.7 µM).

Which IC50 does the source give for `COc1ccc(-c2csc(Nc3ncccc3C)n2)cc1` here?
Its IC50 is 24.5 µg/mL (≈ 82.5 µM).

With `Cc1ccnc(N2C(=O)c3cccc4c([N+](=O)[O-])ccc(c34)C2=O)c1` as the compound, how does the IC50 read?
Its IC50 is 1.4 µg/mL (≈ 4.2 µM).

`Cc1ccc(NC(=O)c2ccc(OCC(=O)OC3CCCCC3)cc2)cc1` was tested. Which IC50 did it give?
The IC50 was 2.73 µg/mL (≈ 7.43 µM).

Which IC50 does the source give for `OC(COc1ccccc1Cl)CN1CCN(C(c2ccccc2)c2ccccc2)CC1` (stereo unspecified) here?
Its IC50 is 2.51 µg/mL (≈ 5.74 µM).

How did the IC50 turn out when `CC(C)(C)c1cc(Cl)c(O)c(NC(=S)NC(=O)c2cccc3ccccc23)c1` was run?
Its IC50 is under 0.1 µg/mL.

`COc1ccc(NC(=O)CC23CC4CC(CC(C4)C2)C3)cc1[N+](=O)[O-]` was tested. Which IC50 did it give?
The IC50 was 3.05 µg/mL (≈ 8.86 µM).

How did the IC50 turn out when `COC(=O)CSc1nc2sc3c(c2c(=O)n1Cc1ccccc1)CCC(C(C)(C)C)C3` (stereo unspecified) was run?
Its IC50 is > 50 µg/mL (inactive).

`Cc1ccc(Cl)cc1N1CCN(C(=O)C2CCN(C(=O)c3ccc(C(C)(C)C)cc3)CC2)CC1` was tested. Which IC50 did it give?
Its IC50 is 3.38 µg/mL (≈ 7.01 µM).

Which IC50 does the source give for `COc1ccc(-c2oc3ncn(CCCn4ccnc4)c(=N)c3c2-c2ccc(OC)cc2)cc1` here?
Its IC50 is 3.79 µg/mL (≈ 8.32 µM).

`CC(C)(C)c1cc(Cl)ccc1OCCCCn1ccnc1` was tested. Which IC50 did it give?
The IC50 was 1.41 µg/mL (≈ 4.6 µM).

For `COc1cccc2c1OC(c1ccccc1)C([N+](=O)[O-])=C2` (stereo unspecified), which IC50 is on record?
The IC50 was 0.7 µg/mL (≈ 2.47 µM).

Which IC50 does the source give for `CCOc1ccc(NC(=O)c2c(NC(=O)CNCCN3CCOCC3)sc3c2CCC3)cc1` here?
The IC50 was 1.33 µg/mL (≈ 2.81 µM).

With `CCOC(=O)c1c(NC(=O)COc2ccccc2C)sc(C(=O)N2CCCC2)c1C` as the compound, how does the IC50 read?
Its IC50 is > 50 µg/mL (inactive).

With `CCN(CC)C(=S)NC(=O)c1ccc(F)cc1` as the compound, how does the IC50 read?
Its IC50 is 3.03 µg/mL (≈ 11.9 µM).

For `COc1ccc(F)cc1CN1CCN(c2ncnc3scc(-c4ccc(F)cc4)c23)CC1`, which IC50 is on record?
The IC50 was > 50 µg/mL (inactive).

How did the IC50 turn out when `CCC(C)NC(=O)c1ccc(NC(=O)C2(c3ccccc3)CCCC2)cc1` (stereo unspecified) was run?
Its IC50 is 1.08 µg/mL (≈ 2.96 µM).

For `Clc1ccc(Cn2ncc3c(NCc4ccccc4)ncnc32)cc1`, which IC50 is on record?
Its IC50 is 6.27 µg/mL (≈ 17.9 µM).

With `CC(NC(=O)Nc1ccccc1O)(C(F)(F)F)C(F)(F)F` as the compound, how does the IC50 read?
The IC50 was 11.2 µg/mL (≈ 35.5 µM).

How did the IC50 turn out when `COc1ccc(CNC(=O)c2sc3nc4c(c(C(F)(F)F)c3c2N)CC(C)CC4)cc1OC` (stereo unspecified) was run?
Its IC50 is > 50 µg/mL (inactive).

With `Cc1ccc(-c2nnc3sc(Cc4ccccc4)nn23)cc1` as the compound, how does the IC50 read?
The IC50 was under 0.1 µg/mL.

How did the IC50 turn out when `O=c1oc(-c2ccccc2Br)nc2sc3c(c12)CCCC3` was run?
The IC50 was 0.98 µg/mL (≈ 2.71 µM).

How did the IC50 turn out when `Oc1cccc2ccc(/C=C/c3cccc(F)c3)nc12` was run?
Its IC50 is 0.13 µg/mL (≈ 0.49 µM).

How did the IC50 turn out when `CCCCN1CCC(O)(c2ccccc2)C(C(=O)c2ccccc2)C1` (stereo unspecified) was run?
Its IC50 is 11.4 µg/mL (≈ 33.9 µM).

With `OCc1nc2ccccc2n1CC(O)COc1ccc(OCc2ccccc2)cc1` (stereo unspecified) as the compound, how does the IC50 read?
Its IC50 is 4.83 µg/mL (≈ 11.9 µM).

Which IC50 does the source give for `O=C(CC12CC3CC(CC(C3)C1)C2)NC(=S)Nc1cccc(Br)c1` here?
The IC50 was > 50 µg/mL (inactive).

`CCN(CC)c1ncnc2c1sc1nc(C)cc(C)c12` was tested. Which IC50 did it give?
Its IC50 is > 50 µg/mL (inactive).

With `COC(=O)C(C)Oc1ccc2c(=O)c(Oc3ccccc3Cl)coc2c1` (stereo unspecified) as the compound, how does the IC50 read?
Its IC50 is 8.57 µg/mL (≈ 22.9 µM).

How did the IC50 turn out when `CCCC(=O)N1CCN(c2ccc(NC(=O)c3cc4ccccc4o3)cc2Cl)CC1` was run?
The IC50 was 33.7 µg/mL (≈ 79.1 µM).

How did the IC50 turn out when `O=C(Nc1cccc(Cl)c1)c1cc(Br)ccc1Cl` was run?
The IC50 was 1.53 µg/mL (≈ 4.43 µM).
